# Results as given in patent US7569550B2, “14 and 15 membered ring compounds” (Glaxo Group Limited, priority 2003, dated 2009).
# Structures can show the parent of a compound that is named as a salt. Where two headings read alike, the source gives them in different places.
# Key:
# Assay in all cases: MIC, standard broth dilution method in microtitre
# Format in all cases: cell-based
# E. faecalis ATCC 29212 = conditions: Enterococcus faecalis, ATCC29212
# Procedure: (§1) Using a standard broth dilution method in microtitre, compounds were tested for antibacterial activity. The compounds in the above examples gave minimum inhibitory concentrations (MICs) less than 1 microgram per millilitre against erythromycin-sensitive and erythromycin-resistant strains of Streptococcus pneumoniae and Streptococcus pyogenes.
# (§2) In addition, the MIC (μg/ml) of test compounds against various organisms was determined including:
# (§3) S. aureus Smith ATCC 13709, S. pneumoniae SP030, S. pyogenes 3565, E. faecalis ATCC 29212, H. influenzae ATCC 49247, M. catarrhalis ATCC 23246.
# H. influenzae ATCC 49247 = conditions: Haemophilus influenzae, ATCC49247
# Procedure: as §1, §2, §3
# [1] = test system: M. catarrhalis ATCC 23246; conditions: Moraxella catarrhalis, ATCC23246
# Procedure: as §1, §2, §3
# [2] = test system: S. aureus Smith ATCC 13709; conditions: Staphylococcus aureus, ATCC13709
# Procedure: as §1, §2, §3
# S. pneumoniae SP030 = conditions: Streptococcus pneumoniae
# Procedure: as §1, §2, §3
# S. pyogenes 3565 = conditions: Streptococcus pyogenes
# Procedure: as §1, §2, §3
# [3] = test system: erythromycin resistant strains of Streptococcus pneumoniae
# Procedure: as §1
# [4] = test system: erythromycin resistant strains of Streptococcus pyogenes
# Procedure: as §1
# [5] = H. influenzae ATCC 49247, read-out: MIC
MIC (E. faecalis ATCC 29212),MIC (H. influenzae ATCC 49247; [5]),MIC [1],MIC [2],MIC (S. pneumoniae SP030),MIC (S. pyogenes 3565),MIC [3],MIC [4],SMILES,MIC (H. influenzae ATCC 49247)
≤ 1 µg/mL,≤ 4 µg/mL,≤ 4 µg/mL,≤ 1 µg/mL,≤ 1 µg/mL,≤ 1 µg/mL,≤ 1 µg/mL,≤ 1 µg/mL,"CC[C@H]1OC(=O)[C@H](C)[C@@H](O[C@H]2C[C@@](C)(OC)[C@@H](OCCCN(C)CCNc3nc4c(cc3F)c(=O)c(C(=O)O)cn4CC)[C@H](C)O2)[C@H](C)[C@@H](O[C@@H]2O[C@H](C)C[C@H](N(C)C)[C@H]2O)[C@](C)(OC)C[C@@H](C)C(=O)[C@@H](C)[C@H]2NC(=O)O[C@@]21C [Example 27, 4″-O-{3-[[2-(3-Carboxy-1-ethyl-6-fluoro-4-oxo-1,4-dihydro-[1,8]naphthyridin-7-ylamino)-ethyl]-methylamino]-propyl}-6-O-methyl-11-desoxy-11-(R)-amino-erythromycin A 11,12-carbamate formate]",
≤ 1 µg/mL,≤ 4 µg/mL,≤ 4 µg/mL,≤ 1 µg/mL,≤ 1 µg/mL,≤ 1 µg/mL,≤ 1 µg/mL,≤ 1 µg/mL,"CC[C@H]1OC(=O)[C@H](C)[C@@H](O[C@H]2C[C@@](C)(OC)[C@@H](OCCCN(C)CCCc3cc4c5c(c3)c(=O)c(C(=O)O)cn5CCC4)[C@H](C)O2)[C@H](C)[C@@H](O[C@@H]2O[C@H](C)C[C@H](N(C)C)[C@H]2O)[C@](C)(OC)C[C@@H](C)C(=O)[C@@H](C)[C@H]2NC(=O)O[C@@]21C [Example 31, 4″-O-{3-[[3-(2-Carboxy-1-oxo-6,7-dihydro-1H,5H-pyrido[3,2,1-ij]quinolin-9-yl)-propyl]-methylamino]-propyl}-6-O-methyl-11-desoxy-11-(R)-amino-erythromycin A 11,12-carbamate]",
,≤ 4 µg/mL,≤ 4 µg/mL,,,,≤ 1 µg/mL,≤ 1 µg/mL,"CC[C@@H]1OC(=O)[C@H](C)[C@H](O[C@@H]2C[C@](C)(OC)[C@H](OCCCN(C)CCNc3cc4c(=O)c(C(=O)O)cn(C5CC5)c4cc3Cl)[C@H](C)O2)[C@@H](C)[C@H](O[C@H]2O[C@@H](C)C[C@@H](N(C)C)[C@H]2O)[C@](C)(OC)C[C@H](C)C(=O)[C@H](C)[C@H]2OC(=O)O[C@@]12C [Example 14, 4″-O-(3-{[2-(3-Carboxy-7-chloro-1-cyclopropyl-4-oxo-1,4-dihydro-quinolin-6-ylamino)ethyl]-methylamino}-propyl)-6-O-methyl-erythromycin A 11,12-carbonate]",
≤ 1 µg/mL,≤ 4 µg/mL,≤ 4 µg/mL,≤ 1 µg/mL,≤ 1 µg/mL,≤ 1 µg/mL,≤ 1 µg/mL,≤ 1 µg/mL,"CC[C@@H]1OC(=O)[C@H](C)[C@H](O[C@@H]2C[C@](C)(OC)[C@H](OCCNCCNc3nc4c(cc3F)c(=O)c(C(=O)O)cn4CC)[C@H](C)O2)[C@@H](C)[C@H](O[C@H]2O[C@@H](C)C[C@@H](N(C)C)[C@H]2O)[C@](C)(OC)C[C@H](C)C(=O)[C@H](C)[C@H](O)[C@@]1(C)O [Example 18, 4″-O-{2-[2-(3-Carboxy-1-ethyl-6-fluoro-4-oxo-1,4-dihydro-[1,8]naphthyridin-7-ylamino)ethyl]-amino}-ethyl}-6-O-methyl-erythromycin A monoformate]",
≤ 1 µg/mL,≤ 4 µg/mL,≤ 4 µg/mL,≤ 1 µg/mL,≤ 1 µg/mL,≤ 1 µg/mL,≤ 1 µg/mL,≤ 1 µg/mL,"CC[C@H]1OC(=O)[C@H](C)[C@@H](O[C@H]2C[C@@](C)(OC)[C@@H](OCCCN(C)CCSc3ccc4c(c3)c(=O)c(C(=O)O)cn4CC)[C@H](C)O2)[C@H](C)[C@@H](O[C@@H]2O[C@H](C)C[C@H](N(C)C)[C@H]2O)[C@](C)(OC)C[C@@H](C)C(=O)[C@@H](C)[C@H]2NC(=O)O[C@@]21C [Example 32, 4″-O-{3-[[2-(3-Carboxy-1-ethyl-4-oxo-1,4-dihydro-quinolin-6-ylsulfanyl)-ethyl]-methylamino]-propyl}-6-O-methyl-11-desoxy-11-(R)-amino-erythromycin A 11,12-carbamate]",
,≤ 4 µg/mL,≤ 4 µg/mL,,,,,,"CC[C@@H]1OC(=O)[C@H](C)[C@H](O[C@@H]2C[C@](C)(OC)[C@H](OCCNCCCc3ccc4c(c3)c(=O)c(C(=O)O)cn4CC)[C@H](C)O2)[C@@H](C)[C@H](O[C@H]2O[C@@H](C)C[C@@H](N(C)C)[C@H]2O)[C@](C)(O)C[C@H](C)CN(C)[C@@H](C)[C@H]2OC(=O)O[C@@]12C [Example 16, 4″-O-{2-[3-(3-Carboxy-1-ethyl-4-oxo-1,4-dihydro-quinolin-6-yl)propylamino]ethyl}azithromycin 11,12-carbonate]",
≤ 1 µg/mL,≤ 4 µg/mL,≤ 4 µg/mL,≤ 1 µg/mL,≤ 1 µg/mL,≤ 1 µg/mL,≤ 1 µg/mL,≤ 1 µg/mL,CC[C@@H]1OC(=O)[C@H](C)[C@H](O[C@@H]2C[C@](C)(OC)[C@H](OCCN(C)CCNc3nc4c(cc3F)c(=O)c(C(=O)O)cn4CC)[C@H](C)O2)[C@@H](C)[C@H](O[C@H]2O[C@@H](C)C[C@@H](N(C)C)[C@H]2O)[C@](C)(OC)C[C@H](C)C(=O)[C@H](C)[C@H](O)[C@@]1(C)O [Example 19],
≤ 1 µg/mL,≤ 4 µg/mL,≤ 4 µg/mL,≤ 1 µg/mL,≤ 1 µg/mL,≤ 1 µg/mL,≤ 1 µg/mL,≤ 1 µg/mL,"CC[C@H]1OC(=O)[C@H](C)[C@@H](O[C@H]2C[C@@](C)(OC)[C@@H](OCCCN(C)CCOc3cc4c5c(c3)c(=O)c(C(=O)O)cn5CCC4)[C@H](C)O2)[C@H](C)[C@@H](O[C@@H]2O[C@H](C)C[C@H](N(C)C)[C@H]2O)[C@](C)(OC)C[C@@H](C)C(=O)[C@@H](C)[C@H]2NC(=O)O[C@@]21C [Example 28, 4″-O-{3-[[2-(2-Carboxy-1-oxo-6,7-dihydro-1H,5H-pyrido[3,2,1-ij]quinolin-9-yloxy)-ethyl]-methylamino]-propyl}-6-O-methyl-11-desoxy-11-(R)-amino-erythromycin A 11,12-carbamate formate]",
≤ 1 µg/mL,≤ 4 µg/mL,≤ 4 µg/mL,≤ 1 µg/mL,≤ 1 µg/mL,≤ 1 µg/mL,≤ 1 µg/mL,≤ 1 µg/mL,"CC[C@@H]1OC(=O)[C@H](C)[C@H](O[C@@H]2C[C@](C)(OC)[C@H](OCCCOCCCc3ccc4c(c3)c(=O)c(C(=O)O)cn4CC)[C@H](C)O2)[C@@H](C)[C@H](O[C@H]2O[C@@H](C)C[C@@H](N(C)C)[C@H]2O)[C@](C)(OC)C[C@H](C)C(=O)[C@H](C)[C@H](O)[C@@]1(C)O [Example 20, 4″-O-{3-[3-(3-Carboxy-1-ethyl-4-oxo-1,4-dihydro-quinolin-6-yl)-propoxy]-propyl}-6-O-methyl-erythromycin A monoformate]",
≤ 1 µg/mL,≤ 4 µg/mL,≤ 4 µg/mL,≤ 1 µg/mL,≤ 1 µg/mL,≤ 1 µg/mL,≤ 1 µg/mL,≤ 1 µg/mL,CC[C@@H]1OC(=O)[C@H](C)[C@H](O[C@@H]2C[C@](C)(OC)[C@H](OCCCN(C)CCNc3nc4c(cc3F)c(=O)c(C(=O)O)cn4CC)[C@H](C)O2)[C@@H](C)[C@H](O[C@H]2O[C@@H](C)C[C@@H](N(C)C)[C@H]2O)[C@](C)(OC)C[C@H](C)C(=O)[C@H](C)[C@H]2OC(=O)O[C@@]12C [Example 15],
,≤ 4 µg/mL,≤ 4 µg/mL,,,,≤ 1 µg/mL,≤ 1 µg/mL,"CC[C@@H]1OC(=O)[C@H](C)[C@H](O[C@@H]2C[C@](C)(OC)[C@H](OCCCNCCSc3ccc4c(c3)c(=O)c(C(=O)O)cn4CC)[C@H](C)O2)[C@@H](C)[C@H](O[C@H]2O[C@@H](C)C[C@@H](N(C)C)[C@H]2O)[C@](C)(OC)C[C@H](C)C(=O)[C@H](C)[C@H]2OC(=O)O[C@@]12C [Example 4, 4″-O-{3-[2-(3-Carboxy-1-ethyl-4-oxo-1,4-dihydro-quinolin-6-ylsulfanyl)-ethylamino]-propyl}-6-O-methyl-erythromycin A 11,12-carbonate bisformate]",

SMILES,MIC (E. faecalis ATCC 29212),MIC (H. influenzae ATCC 49247; [5]),MIC [1],MIC [2],MIC (S. pneumoniae SP030),MIC (S. pyogenes 3565),MIC [3],MIC [4],MIC (H. influenzae ATCC 49247)
"CC[C@@H]1OC(=O)[C@H](C)[C@H](O[C@H]2C[C@](C)(OC)[C@@H](OCCN(C)CCNc3cc4c(cc3F)c(=O)c(C(=O)O)cn4C3CC3)[C@@H](C)O2)[C@@H](C)[C@H](O[C@H]2O[C@@H](C)C[C@@H](N(C)C)[C@H]2O)[C@](C)(OC)C[C@H](C)C(=O)[C@H](C)[C@H]2OC(=O)O[C@@]12C [Example 1, 4″-O-(2-{[2-(3-Carboxy-1-cyclopropyl-6-fluoro-4-oxo-1,4-dihydro-quinolin-7-ylamino)-ethyl]-methylamino}-ethyl)-6-O-methyl-erythromycin A 11,12-carbonate bis trifluoroacetate]",≤ 1 µg/mL,,≤ 4 µg/mL,≤ 1 µg/mL,≤ 1 µg/mL,≤ 1 µg/mL,≤ 1 µg/mL,≤ 1 µg/mL,≤ 4 µg/mL
